Laboratory results from PMC5678437, “A new antagonist for CCR4 attenuates allergic lung inflammation in a mouse model of asthma” (Scientific Reports, 2017).

Legend:
CCR4 = target: T1, CCR4 (Homo sapiens, UniProt P51679); test: Chemotaxis inhibition assay, pcDI-CCR4-transfected HEK293 cells; type: cell-based; conditions: 1 μM compound, 30 min pretreatment; C27 100 ng/ml; compared with compound 22 and compound 6b
T1 construct: expressed in transfected cells; cell membrane extract
T1 sequence (P51679 1-360): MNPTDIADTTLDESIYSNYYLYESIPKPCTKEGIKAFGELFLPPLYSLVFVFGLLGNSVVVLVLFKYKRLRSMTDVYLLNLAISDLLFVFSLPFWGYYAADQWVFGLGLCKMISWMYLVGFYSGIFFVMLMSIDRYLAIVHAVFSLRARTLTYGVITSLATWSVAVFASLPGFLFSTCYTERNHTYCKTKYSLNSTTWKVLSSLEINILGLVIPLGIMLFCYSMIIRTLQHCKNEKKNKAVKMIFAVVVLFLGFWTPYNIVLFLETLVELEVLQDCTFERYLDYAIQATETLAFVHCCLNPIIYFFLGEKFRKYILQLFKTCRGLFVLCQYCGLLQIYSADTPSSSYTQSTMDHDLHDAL
Description: Chemokine receptor expression plasmid was transiently transfected into HEK293 by electroporation at 120 V for 20 ms, using an electric pulse generator (Electro Square Porator ECM 830; BTX, San Diego, CA). Forty-eight-well micro chemotaxis chambers (Neutroprobe, Bethesda, MD, USA) were used in this assay. Forty-eight hours later, the cells were pretreated with compounds or compounds dissolved medium (1‰ DMSO) for 30 min at 37 °C prior to stimulation with chemoattractant. Chemoattractant diluted in RPMI 1640 medium supplemented with 0.1% bovine serum albumin (BSA) was placed in the lower chambers (27.5 μl/well). In these assays, CCL22 and CCL17 (Peprotech, Rocky Hill, NJ, USA) were used as chemoattractant and the final concentrations of chemoattractant were 10 ng/ml and 80 ng/ml respectively. The pcDI-CCR4-transfected HEK293 cells were resuspended in the same medium at a density of 1 × 10^6 cells/ml and added to the upper chambers (55 μl/well). […] Cells that migrated into each filter were counted in five randomly selected high-power fields (400 × ) per well. […] The chemotactic index was calculated and expressed as the number of cells that migrated to the sample over the number of cells that migrated to the control medium.

CCR3 = target: T2, CCR3 (Homo sapiens, UniProt P51677); test: Chemotaxis inhibition assay for receptor specificity, HEK293-CCR3; type: cell-based; conditions: 0.2, 1, 5, 25 μM, 30 min pretreatment
T2 sequence (P51677 2-355 limits assumed): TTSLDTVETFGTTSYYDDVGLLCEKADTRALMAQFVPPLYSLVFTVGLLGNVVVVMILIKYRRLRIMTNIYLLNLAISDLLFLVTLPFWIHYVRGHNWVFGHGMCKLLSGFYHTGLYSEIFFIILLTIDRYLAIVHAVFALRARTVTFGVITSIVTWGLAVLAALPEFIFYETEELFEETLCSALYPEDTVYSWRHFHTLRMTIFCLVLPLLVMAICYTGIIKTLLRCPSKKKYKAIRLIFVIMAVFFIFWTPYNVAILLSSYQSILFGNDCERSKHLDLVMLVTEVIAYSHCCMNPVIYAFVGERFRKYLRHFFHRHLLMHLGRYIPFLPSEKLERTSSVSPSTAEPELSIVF
Description: HEK293 cells were transfected with different chemokine receptors. The corresponding chemokines of different receptors were placed in the lower chambers. The transfected cells were pretreated with different concentrations of Compound 8a or 1‰ DMSO for 30 min at a density of 1 × 10^6 cells/ml and added to the upper chambers, the final concentration of the compound is: 0.2 μM, 1 μM, 5 μM, and 25 μM, respectively.

[1] = system: OVA-induced asthmatic mice; test: BALF total cell and cell differential counts in OVA-induced asthmatic mice; type: in vivo, BALB/c mice; conditions: for total cells count in BALF: vs vehicle
Description: Male BALB/c 6 week old mice were purchased from the Experimental Animal Center of Zhejiang University. All mice were raised in a specific pathogen-free animal facility. All animal experiments were carried out according to the guidelines for the care and use of laboratory animals and were approved by the ethics committee of Zhejiang University and Peking University, China.
Mice were sensitized and challenged with chicken egg OVA (sigma-Aldrich, St Louis, MO, USA) as described in details previously. Briefly, after sensitized by intraperitoneal injection of 100 μl (80 μg) OVA in 100 μl alum (Pierce, Rockford, IL, USA) on days 0 and 14, mice were exposure to 1% OVA aerosols for 40 min on days 24–26. Control mice were injected intraperitoneally with saline and exposed to saline aerosols.
Compound 8a was dissolved in saline with DMSO (0.5%). Half an hour before each OVA challenge, the groups of mice treated with various doses of compound 8a (0.2, 1, 5 mg) inhaled aerosolized compound 8a for 45 min on days 24–26. Compound 8a aerosols were produced by using a Plexiglas chamber and ultrasonic nebulizer. While the budesonide (BUD) group were administered with 5 mg budesonide, and the vehicle group were treated with compound-dissolved vehicle. The Saline was treated as the control.
Twenty-four hours after the last exposure, collection of BALF and cell count was performed as previously described. Briefly, lavage was performed by instilling 0.4 ml PBS into lungs and with drawn to collect the cells three times. Total BALF cells were counted. After be centrifuged, the remaining cells was spun onto glass slides, and stained with Wright–Giemsa stain. Differential counts were evaluated by counting 400 total cells.

[2] = 5 mg inhaled aerosol, compared with vehicle treated group
[3] = compound 8a 0.2, 1, 5 mg, budesonide 5 mg, inhaled aerosol

Which “inhibition of chemotaxis of CCR4 transfected HEK293 to C27” value (CCR4) does the source give for `O=C(C1CCCCN1)N1CCN(c2nc(Cl)cc(NCc3ccc(Cl)cc3Cl)n2)CC1` (stereo not drawn) [compound 8a, {4-[4-Chloro-6-(2,4-dichloro-benzylamino)-pyrimidin-2-yl]-piperazin-1-yl}-piperidin-2-yl-methanone] here?
Its value is “more positive efficiency”.

What about the “inhibition of chemotaxis of HEK293-CCR3 to its ligand” value (CCR3) of the same compound?
The value was “few influence”.

What about the “total cells count in BALF” value ([1]; 0.2 mg inhaled aerosol) of the same compound?
The value was “marginal”.

And the “total cells count in BALF” value ([1]; 1 mg inhaled aerosol)?
The value was “remarkably inhibitory effect”.

And the “absolute number of eosinophils in BALF” value [1, 2]?
Its value is “significantly decreased”.

And the “absolute number of lymphocytes in BALF” value [1, 2]?
Its value is “significantly decreased”.

What about the “total cells count in BALF” value ([1]; 5 mg inhaled aerosol) of the same compound?
Its value is “remarkably inhibitory effect”.

What about the “number of macrophages in BALF” value [1, 3] of the same compound?
The value was “neither compound 8a nor budesonide affect”.

What about the “number of neutrophils in BALF” value [1, 3] of the same compound?
The value was “neither compound 8a nor budesonide affect”.
